Experimental data as given in patent US20080220497A1, “Modulation of protein functionalities” (priority 2003, published 2008).

Experiments:
p38-alpha kinase = p38-alpha kinase (Homo sapiens, UniProt Q16539); conditions: time-dependent if IC50 values decrease with reaction time (more than two-fold in four hours)
Protocol: This dilution can be done automatically on a Tecan (or similar) robotic workstation or performed manually. • 3. […] This step can be performed automatically on a Tecan (or similar) robotic workstation or performed manually. • 4. Incubate at 30° C. or room temp for 2 h, depending on protein stability. • 5. Read at emission wavelength 420 nm upon excitation at 340 nm.

[1] = target: T1, doubly phosphorylated p38-alpha kinase (Homo sapiens, UniProt Q16539); assay: Fluorescence affinity assay, doubly phosphorylated p38-alpha kinase; assay type: binding; conditions: ~24 nM enzyme; 1.0 uM SKF-86002; read-out: FP IC50 P-p38-alpha
T1 construct: 6xHis ([…], seen only in the listing) (C); purchased Roche Applied Diagnostics
Text: (§1) This fluorescence affinity assay is utilized in an affinity-based screen to identify small molecules which bind into switch control pockets of protein kinases. Binding of small molecule switch inhibitors displaces the switch control ligand phenylalanine of the DFG motif into an orientation which sterically blocks the ATP pocket. Such inhibitor-induced blockade of the ATP pocket is registered as an inhibition of binding of the fluoroprobe into the ATP pocket.
(§2) • 1. p38-alpha kinase • a. […] Polarstar Optima plate reader (BMG)
• 1. […] This dilution can be done automatically on a Tecan (or similar) robotic workstation or performed manually. • 3. Mix Solution A with the diluted compound solutions following Step 3 of Table 22. This step can be performed automatically on a Tecan (or similar) robotic workstation or performed manually. • 4. Incubate at 30° C. or room temp for 2 h, depending on protein stability. • 5. Read at emission wavelength 420 nm upon excitation at 340 nm. […]
(§3) A ratio greater than 1.0 indicates a preference for inhibiting the unphosphorylated form of p38-alpha kinase relative to the doubly phosphorylated form. A ratio less than 1.0 indicates a preference for inhibiting the doubly phosphorylated form of p38-alpha kinase relative to the unphosphorylated form.

[2] = target: T2, unphosphorylated p38-alpha kinase (Homo sapiens, UniProt Q16539, DEL261-261); assay: Thermal denaturation of unphosphorylated p38-alpha kinase; assay type: binding; conditions: for ΔTm (° C.) relative to unphosphorylated apo p38: […] p38-alpha kinase, 15 μM small molecule
T2 construct: 48 (6×His-TEV tag, full length); 6×His-TEV tag (N); purchased Decode Genetics, Inc; host or cells: E. coli
Text: (§4) Denaturation was monitored by measuring the absolute absorbance of the solutions at an appropriate wavelength (typically 230 nm and 240 nm) as a function of temperature. As the protein became denatured, additional UV absorbing functional groups became exposed causing an increase in absorbance at the melting temperature. […] The thermal data were collected using Agilent spectrophotometers and ChemStation UV/Vis Thermal Denaturation software.
The final protein and buffer solution was mixed gently using a pipetter to minimize denaturing due to over aggressive mixing. The final solution was transferred to a 50 μL cuvette for analysis.
(§5) The final solution was transferred to a 50 μL cuvette for analysis.
(§6) A first derivative calculation with data smoothing was applied to the resulting data to report the point of inflection as the melting temperature.

[3] = target: T1, doubly phosphorylated p38-alpha kinase; assay: Thermal denaturation of doubly phosphorylated p38-alpha kinase; assay type: binding; conditions: for ΔTm (° C.) relative to doubly phosphorylated p38: 0.5 μM p38-alpha kinase, 20 μM small molecule
Protocol: as §4
The final concentration was 0.5 μM p38-alpha kinase and 20 μM small molecule. The final protein and buffer solution was mixed gently using a pipetter to minimize denaturing due to over aggressive mixing. The final solution was transferred to a 50 μL cuvette for analysis.
The protein and buffer solution was mixed gently using a pipetter to minimize denaturing due to over aggressive mixing. The final solution was transferred to a 50 μL cuvette for analysis.
as §6

[4] = target: T2, unphosphorylated p38-alpha kinase; assay: Fluorescence affinity assay, unphosphorylated p38-alpha kinase; assay type: binding; conditions: for Ratio IC50s: doubly phosphorylated vs unphosphorylated p38-alpha, >1.0 = preference for unphosphorylated form; for IC50: ~24 nM enzyme, 1.0 uM SKF-86002, read-out: FP IC50 U-p38-alpha
Text: as §1, §2
• 1. […] This dilution can be done automatically on a Tecan (or similar) robotic workstation or performed manually. • 3. Mix Solution A with the diluted compound solutions following Step 3 of Table 22. This step can be performed automatically on a Tecan (or similar) robotic workstation or performed manually. • 4. Incubate at 30° C. or room temp for 2 h, depending on protein stability. • 5. Read at emission wavelength 420 nm upon excitation at 340 nm.
The reaction was initiated by addition of the enzyme. […] By comparison of RFU (relative fluorescence units) values with that of a control (in the absence of small molecule modulators), the percentage of inhibition at each concentration of the small molecules was calculated. IC50 values for the small molecule modulators were calculated from the % inhibition values obtained at a range of concentrations of the small molecule modulators using Prism (available from GraphPad, Inc.). When time-dependent inhibition was assessed, the plate was read at multiple reaction times such as 0.5, 1, 2, 3, 4 and 6 hours. The IC50 values were calculated at each time point. An inhibition was assigned as time-dependent if the IC50 values decrease with the reaction time (more than two-fold in four hours).
as §3

V599E Braf kinase = target: T3, V599E Braf kinase (Homo sapiens, UniProt P15056, V600E); assay: Thermal denaturation of oncogenic V599E Braf kinase; assay type: binding; conditions: 1.4 μM V599E Braf kinase, 20 μM small molecule; read-out: ΔTm (° C.) relative to unphosphorylated B-Raf(V599E)
T3 construct: 6×His-tag (N); made in house; host or cells: Sf9 insect cells (baculovirus)
Protocol: as §4, §5, §5, §6

Abl kinase = assay: Thermal denaturation of Abl kinase; assay type: binding, human; conditions: 1 μM Abl kinase, 20 μM small molecule
Protocol: as §4
5 μL of 40 μM Abl kinase was mixed with 195 μL of the small molecule/buffer solution. The final concentration was 1 μM Abl kinase and 20 μM small molecule. The final protein and buffer solution was mixed gently using a pipetter to minimize denaturing due to over aggressive mixing. The final solution was transferred to a 50 μL cuvette for analysis.
Test solutions containing only the Abl kinase were prepared as follows: 5 μL of 40 μM Abl kinase was mixed with 195 μL Buffer to give a concentration of 1 μM Abl kinase in Buffer. The protein and buffer solution was mixed gently using a pipetter to minimize denaturing due to over aggressive mixing. The final solution was transferred to a 50 μL cuvette for analysis.
as §6

Sequence of p38-alpha kinase (Q16539 whole entry): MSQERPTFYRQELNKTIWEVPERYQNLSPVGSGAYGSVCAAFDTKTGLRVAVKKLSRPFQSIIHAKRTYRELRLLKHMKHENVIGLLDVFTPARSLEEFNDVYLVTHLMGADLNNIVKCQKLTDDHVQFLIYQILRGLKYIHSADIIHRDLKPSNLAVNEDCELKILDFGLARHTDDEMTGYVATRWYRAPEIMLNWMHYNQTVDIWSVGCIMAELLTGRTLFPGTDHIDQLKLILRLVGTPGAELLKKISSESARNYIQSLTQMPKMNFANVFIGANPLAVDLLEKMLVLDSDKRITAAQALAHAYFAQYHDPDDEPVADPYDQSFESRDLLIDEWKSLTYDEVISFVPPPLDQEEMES
T3 sequence (P15056 with tags, fused parts or gaps V600E): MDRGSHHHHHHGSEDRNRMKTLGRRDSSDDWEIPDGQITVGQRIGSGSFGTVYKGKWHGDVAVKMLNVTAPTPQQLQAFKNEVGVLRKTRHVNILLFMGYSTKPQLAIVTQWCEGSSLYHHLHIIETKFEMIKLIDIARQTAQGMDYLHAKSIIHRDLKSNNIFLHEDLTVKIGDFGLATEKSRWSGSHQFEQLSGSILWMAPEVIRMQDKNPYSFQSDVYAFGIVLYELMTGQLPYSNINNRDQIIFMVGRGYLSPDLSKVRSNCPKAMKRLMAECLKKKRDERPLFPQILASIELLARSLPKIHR
T1 sequence (Q16539 with tags, fused parts or gaps): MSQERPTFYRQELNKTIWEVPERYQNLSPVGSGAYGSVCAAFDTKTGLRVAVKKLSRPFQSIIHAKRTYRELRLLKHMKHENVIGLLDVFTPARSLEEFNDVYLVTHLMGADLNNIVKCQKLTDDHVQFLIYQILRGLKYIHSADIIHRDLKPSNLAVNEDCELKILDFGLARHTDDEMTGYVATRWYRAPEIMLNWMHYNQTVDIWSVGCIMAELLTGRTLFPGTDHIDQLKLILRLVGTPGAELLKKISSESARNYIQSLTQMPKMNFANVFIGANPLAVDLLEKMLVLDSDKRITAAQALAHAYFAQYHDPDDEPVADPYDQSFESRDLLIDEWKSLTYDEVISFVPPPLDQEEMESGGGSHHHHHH
T2 sequence (Q16539 with tags, fused parts or gaps DEL261-261): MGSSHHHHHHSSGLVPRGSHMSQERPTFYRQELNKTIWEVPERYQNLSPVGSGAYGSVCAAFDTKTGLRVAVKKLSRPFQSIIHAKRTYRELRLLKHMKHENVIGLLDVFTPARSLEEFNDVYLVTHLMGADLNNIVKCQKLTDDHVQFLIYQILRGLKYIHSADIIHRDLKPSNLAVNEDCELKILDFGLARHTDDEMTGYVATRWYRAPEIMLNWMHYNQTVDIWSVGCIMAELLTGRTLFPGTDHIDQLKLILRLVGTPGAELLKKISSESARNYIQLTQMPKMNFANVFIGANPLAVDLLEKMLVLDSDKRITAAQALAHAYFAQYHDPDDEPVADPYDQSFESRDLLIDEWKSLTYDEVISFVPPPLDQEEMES

| Structure (SMILES) | IC50 [1] | ΔTm (° C.) relative to unphosphorylated apo p38 [2] | ΔTm (° C.) relative to doubly phosphorylated p38 [3] | Ratio IC50s [4] | IC50 [4] | further results |
| --- | --- | --- | --- | --- | --- | --- |
| CC1(C(=O)O)CC2(C)CC(C)(C1)C(=O)N(Cc1cccc(-n3nc(C(C)(C)C)cc3NC(=O)Nc3cccc4ccccc34)c1)C2=O (stereo not shown) [Example 11] | – | – | – | – | – | Time-dependent (p38-alpha kinase): No |
| CC1(C(=O)O)CC2(C)CC(C)(C1)C(=O)N(Cc1cccc(-n3nc(C(C)(C)C)cc3NC(=O)Nc3ccc(Cl)cc3)c1)C2=O (stereo not shown) [Example 12] | – | – | – | – | – | Time-dependent (p38-alpha kinase): No |
| CC(C)(C)c1cc(NC(=O)Nc2cccc3ccccc23)n(-c2cccc(CC(=O)N3CCOCC3)c2)n1 [Example 21, 1-(3-tert-butyl-1-(3-(2-morpholino-2-oxoethyl)phenyl)-1H-pyrazol-5-yl)-3-(naphthalen-1-yl)urea] | – | – | – | – | – | Time-dependent (p38-alpha kinase): Yes |
| CC(C)(C)c1cc(NC(=O)Nc2ccc(Cl)cc2)n(-c2ccc(CO)cc2)n1 [Example 61] | 19 nM | 8.5 °C | 5.9 °C | 0.8 | 24 nM | – |
| O=C(Nc1cccc(Cl)c1Cl)Nc1cc(-c2ccccc2)nn1-c1cccc(CO)c1 [Example 63] | 85 nM | 9.4 °C | 5.0 °C | – | 28 nM | – |
| CC(C)(C)c1cc(NC(=O)Nc2cccc(Cl)c2Cl)n(-c2cccc(CC(N)=O)c2)n1 [Example 69] | – | – | – | – | – | Thermal denaturation assay ΔTm ([2]; unphosphorylated p38-alpha kinase): 13.10 °; Thermal denaturation assay ΔTm ([3]; phosphorylated p38-alpha kinase): 9.1 ° |
| CC1(O)CCN(C(=O)Cc2ccc(-n3nc(C(C)(C)C)cc3NC(=O)Nc3cccc(Cl)c3Cl)cc2)CC1 [Example 70] | 26 nM | 12.6 °C | 8.7 °C | 2.3 | 26 nM | – |
| CC(C)(C)c1cc(NC(=O)Nc2cccc3ccccc23)n(-c2cccc(CO)c2)n1 [Example 71] | 19 nM | 10.9 °C | 9.6 °C | 1.1 | 17 nM | – |
| CC(C)(C)c1cc(NC(=O)Nc2cccc3ccccc23)n(-c2ccc(C(O)C(F)(F)F)cc2)n1 (stereo not shown) [Example 73] | – | 8.9 °C | 5.9 °C | – | – | – |
| CC(C)(C)c1cc(NC(=O)Nc2cccc3ccccc23)n(-c2cccc(C(C)(C)O)c2)n1 [Example 75] | 119 nM | 8.2 °C | 5.6 °C | 0.7 | 165 nM | – |
| CC(C)(C)c1cc(NC(=O)Nc2cccc(Cl)c2Cl)n(-c2ccc(CC(N)=O)cc2)n1 [Example 76] | 26 nM | 13.1 °C | 9.4 °C | – | – | – |
| NC(=O)Cc1cccc(-n2nc(-c3ccccc3)cc2NC(=O)Nc2cccc(Cl)c2Cl)c1 [Example 77] | 57 nM | 8.0 °C | 5.3 °C | 1.1 | 25 nM | – |
| NC(=O)Cc1cccc(-n2nc(-c3cscn3)cc2NC(=O)Nc2cccc(Cl)c2Cl)c1 [Example 78] | 195 nM | 6.7 °C | 3.9 °C | 1.5 | 233 nM | – |
| CNC(=O)Cc1cccc(-n2nc(C(C)(C)C)cc2NC(=O)Nc2cccc(Cl)c2Cl)c1 [Example 79] | – | – | – | – | – | ΔTm at 20 µM (V599E Braf kinase): 12 °C |
| CC(C)(C)c1cc(NC(=O)Nc2cccc(Cl)c2Cl)n(-c2ccc3c(c2)CN(S(C)(=O)=O)CC3)n1 [Example 80] | – | – | – | – | – | ΔTm (° C.) relative to unphosphorylated Abl (Abl kinase): 2.3 °C; ΔTm at 20 µM (V599E Braf kinase): 14.6 °C |
| CC(C)(C)c1cc(NC(=O)Nc2cccc(Cl)c2Cl)n(-c2ccc3c(c2)CCC(=O)N3)n1 [Example 81] | – | – | – | – | – | ΔTm at 20 µM (V599E Braf kinase): 17.3 °C |
| CC(C)(C)c1cc(NC(=O)Nc2cccc(Cl)c2Cl)n(-c2ccc3c(c2)CCNC3=O)n1 [Example 82] | – | – | – | – | – | ΔTm at 20 µM (V599E Braf kinase): 13.5 °C |
| CC(C)(C)c1cc(NC(=O)Nc2cccc3ccccc23)n(-c2cccc(C(C)(C)O)c2)n1 [Example 83] | – | – | – | – | – | ΔTm at 20 µM (V599E Braf kinase): 14.9 °C |
| CC(C)(C)c1cc(NC(=O)Nc2cccc(Cl)c2Cl)n(-c2ccc(CC(N)=O)cc2)n1 [Example 84] | – | – | – | – | – | ΔTm at 20 µM (V599E Braf kinase): 12.5 °C |
| CC(C)(C)c1cc(NC(=O)Nc2ccc(Cl)cc2)n(-c2cccc(CO)c2)n1 [Example 85] | – | – | – | – | – | ΔTm at 20 µM (V599E Braf kinase): 2.9 °C |
| CC(C)(C)c1cc(NC(=O)Nc2cccc(Cl)c2Cl)n(-c2cc(CNC(=O)NS(C)(=O)=O)c3ccccc3c2)n1 [Example 86] | – | – | – | – | – | ΔTm (° C.) relative to unphosphorylated Abl (Abl kinase): 4.0 °C |
| CC(C)(C)c1cc(NC(=O)Nc2cccc(Cl)c2Cl)n(-c2cc(CO)c3ccccc3c2)n1 [Example 87] | – | – | – | – | – | ΔTm (° C.) relative to unphosphorylated Abl (Abl kinase): 3.6 °C |
| CC(=O)N1CCc2ccc(-n3nc(C(C)(C)C)cc3NC(=O)Nc3cccc(Cl)c3Cl)cc2C1 [Example 88] | – | – | – | – | – | ΔTm (° C.) relative to unphosphorylated Abl (Abl kinase): 1.2 °C |
| CC(C)(C)c1cc(NC(=O)Nc2cccc(Cl)c2Cl)n(-c2ccc3c(c2)C(N)=NCC3)n1 [Example 89] | – | – | – | – | – | ΔTm (° C.) relative to unphosphorylated Abl (Abl kinase): 1.8 °C |
| CC(C)(C)c1cc(NC(=O)Nc2cccc(Cl)c2Cl)n(-c2cccc(C(=N)N)c2)n1 [Example 90] | – | – | – | – | – | ΔTm (° C.) relative to unphosphorylated Abl (Abl kinase): 1.3 °C |
| COc1ccc(-n2nc(C(C)(C)C)cc2NC(=O)Nc2cccc(Cl)c2Cl)cc1 [Example 91] | – | – | – | – | – | ΔTm (° C.) relative to unphosphorylated Abl (Abl kinase): 12.5 °C |
| CC(C)(C)c1cc(NC(=O)Nc2cccc3ccccc23)n(-c2ccc(OCC(=O)O)cc2)n1 [Example 92] | 160 nM | – | – | 3.1 | 52 nM | – |
| CC(C)(C)c1cc(NC(=O)Nc2cccc(Oc3cccnc3)c2)n(-c2cccc(CC(N)=O)c2)n1 [Example 93, 1-(1-(3-(2-amino-2-oxoethyl)phenyl)-3-tert-butyl-1H-pyrazol-5-yl)-3-(3-(pyridin-3-yloxy)phenyl)urea] | 39 nM | – | – | 2.4 | 16 nM | – |
| Cc1ccc(NC(=O)Nc2cc(C(C)(C)C)nn2-c2ccc3c(c2)CCNC3)cc1Nc1ncccn1 [Example 94, 1-(3-tert-butyl-1-(1,2,3,4-tetrahydroisoquinolin-6-yl)-1H-pyrazol-5-yl)-3-(4-methyl-3-(pyrimidin-2-ylamino)phenyl)urea] | 19 nM | – | – | 1.9 | 10 nM | – |
| CC(C)(C)c1cc(NC(=O)Nc2cccc(Cl)c2Cl)n(-c2ccc(CC(=O)N3CCS(=O)(=O)CC3)cc2)n1 [Example 96] | 8 nM | – | – | 3.0 | 7 nM | – |
